This note sets out measurements from ChEMBL document CHEMBL1148661, “SAR studies: designing potent and selective LXR agonists” (Bioorg Med Chem Lett, 2006).

Data set [1] is described as follows: in vivo. Conditions: mouse.
For data set [2], the target named is T1, Oxysterols receptor LXR-beta (Homo sapiens, UniProt P55055).
T1 sequence (P55055 whole entry): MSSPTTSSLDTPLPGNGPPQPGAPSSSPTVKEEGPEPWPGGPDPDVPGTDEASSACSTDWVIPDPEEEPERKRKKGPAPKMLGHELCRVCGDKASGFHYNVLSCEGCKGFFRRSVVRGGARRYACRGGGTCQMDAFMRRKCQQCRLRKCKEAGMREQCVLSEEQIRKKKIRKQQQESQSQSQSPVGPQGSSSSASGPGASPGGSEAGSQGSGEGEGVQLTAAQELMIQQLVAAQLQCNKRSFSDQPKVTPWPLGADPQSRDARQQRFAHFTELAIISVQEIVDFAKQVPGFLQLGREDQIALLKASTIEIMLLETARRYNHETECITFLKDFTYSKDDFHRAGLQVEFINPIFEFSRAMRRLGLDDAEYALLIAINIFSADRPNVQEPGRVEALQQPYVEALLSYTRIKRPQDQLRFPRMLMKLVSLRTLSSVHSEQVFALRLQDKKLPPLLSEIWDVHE
The class given is functional, cell-based, CHO.

Data set [3] concerns the target T1, Oxysterols receptor LXR-beta.
Data set [4] has as its target T2, Oxysterols receptor LXR-alpha (Homo sapiens, UniProt Q13133).
T2 sequence (Q13133 whole entry): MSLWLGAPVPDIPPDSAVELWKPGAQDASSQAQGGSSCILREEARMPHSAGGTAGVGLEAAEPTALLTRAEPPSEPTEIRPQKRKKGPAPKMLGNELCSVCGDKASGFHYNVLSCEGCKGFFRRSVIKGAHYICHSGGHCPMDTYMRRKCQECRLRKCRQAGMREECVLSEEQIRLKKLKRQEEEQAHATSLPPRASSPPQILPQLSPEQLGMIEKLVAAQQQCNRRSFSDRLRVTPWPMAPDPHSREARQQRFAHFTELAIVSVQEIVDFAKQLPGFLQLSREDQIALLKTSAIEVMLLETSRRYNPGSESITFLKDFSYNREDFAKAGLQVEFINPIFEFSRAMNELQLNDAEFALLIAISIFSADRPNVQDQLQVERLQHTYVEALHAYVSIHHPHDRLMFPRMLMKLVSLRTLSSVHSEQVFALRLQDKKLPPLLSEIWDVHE

The nature of data set [5]: in vivo. As to conditions: mouse, iv, 0.5 mg/kg.
A short description of data set [6]: in vivo. As to conditions: mouse, iv, 0.5 mg/kg. The source holds these as a separate data set.
Data set [7] concerns the target T2, Oxysterols receptor LXR-alpha. In kind it is functional, cell-based, CHO.
The target of data set [8] is T3, Peroxisome proliferator-activated receptor alpha (Homo sapiens, UniProt Q07869).
T3 sequence (Q07869 whole entry): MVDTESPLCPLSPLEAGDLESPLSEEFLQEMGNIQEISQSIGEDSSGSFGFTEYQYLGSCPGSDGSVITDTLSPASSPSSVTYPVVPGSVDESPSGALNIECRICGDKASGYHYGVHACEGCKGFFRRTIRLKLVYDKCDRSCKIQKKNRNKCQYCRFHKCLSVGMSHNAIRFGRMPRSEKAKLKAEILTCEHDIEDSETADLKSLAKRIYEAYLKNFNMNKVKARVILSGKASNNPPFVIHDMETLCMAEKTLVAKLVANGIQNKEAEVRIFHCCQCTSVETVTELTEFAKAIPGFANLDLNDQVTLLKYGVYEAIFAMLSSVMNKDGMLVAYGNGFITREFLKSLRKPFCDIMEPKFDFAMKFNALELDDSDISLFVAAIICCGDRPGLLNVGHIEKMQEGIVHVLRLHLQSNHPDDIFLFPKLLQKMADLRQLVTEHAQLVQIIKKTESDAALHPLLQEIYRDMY

Another data set is filed under the species Mus musculus. As to conditions: in vivo.
Data set [9] deals with T4, Nuclear receptor subfamily 1 group I member 2 (Homo sapiens, UniProt O75469).
T4 sequence (O75469 whole entry): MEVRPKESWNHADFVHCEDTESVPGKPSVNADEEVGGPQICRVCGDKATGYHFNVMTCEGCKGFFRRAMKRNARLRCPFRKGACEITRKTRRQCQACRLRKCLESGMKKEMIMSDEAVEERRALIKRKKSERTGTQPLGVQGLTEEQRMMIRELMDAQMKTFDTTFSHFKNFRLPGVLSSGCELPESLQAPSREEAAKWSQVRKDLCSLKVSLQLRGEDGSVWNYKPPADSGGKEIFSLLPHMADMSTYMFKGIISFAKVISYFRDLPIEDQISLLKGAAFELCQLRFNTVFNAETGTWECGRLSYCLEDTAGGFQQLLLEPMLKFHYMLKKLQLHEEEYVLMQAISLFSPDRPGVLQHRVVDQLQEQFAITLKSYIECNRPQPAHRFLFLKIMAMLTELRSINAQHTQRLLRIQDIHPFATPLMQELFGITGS

A word on the half-life: it is how long it takes for the measured level to halve. Read a high half-life as slow loss. The EC50 is the concentration giving half of the maximal effect. A low value points to a more potent agent. One may read the IC50 as the concentration that gives 50% inhibition. The low end stands for higher potency, the high end for lower potency. One may read the Vd as a proportionality between amount in the body and measured concentration, not a real space. Read a high Vd as extensive tissue distribution. Broadly, the clearance is the volume of plasma or blood freed of the substance per unit of time.

Molecules are shown by their SMILES.

`CCCc1c(OCCCn2ccc3cc(CC(=O)O)ccc32)ccc2c(C(F)(F)F)noc12`: the half-life in the data set “in vivo [1]” is 3.9 h. The figures for the concentration for a half-maximal effect (EC50) in [2] and in data set [7] were 450 nM and 590 nM, respectively. Also, the IC50 was 16 nM in data set [3], 16 nM in [4] and 400 nM in [8]. The same molecule came in with a Vd in the data set “in vivo [5]” of 2.7 L/kg. The clearance in the data set “in vivo [6]” came to 18 mL/min/kg. The AUC in the data set filed under Mus musculus was determined as 2.7 µM·kg·h/mg.
Molecule `CCCc1c(OCCCN2C(=O)Cc3cc(CC(=O)O)ccc32)ccc2c(C(F)(F)F)noc12` showed a half-life in the data set “in vivo [1]” of 1 h. Further, the EC50 turned out to be 140 nM in data set [2] and 180 nM in data set [7]. The concentration for half-maximal inhibition (IC50) was 13 nM in data set [3], > 10000 nM in [9] and 19 nM in [4]. The Vd in the data set “in vivo [5]” came to 2.9 L/kg. In “in vivo [6]”, the clearance was found to be 46 mL/min/kg. The molecule also had an AUC in the data set filed under Mus musculus of 1 µM·kg·h/mg.
